Tests used:
STK33 = STK33 (Homo sapiens, UniProt Q9BYT3); experiment: biochemical; conditions: read-out: Percent Control
[1] = target: RSK2(Kin.Dom.1-N-terminal) (Homo sapiens, UniProt P51812); conditions: 0.1 µM; binder
PFCDPK1 (P. falciparum) = PFCDPK1 (P. falciparum) (Plasmodium falciparum, UniProt P62344); conditions: 0.1 µM; binder
[2] = target: RPS6KA5(Kin.Dom.1-N-terminal) (Homo sapiens, UniProt O75582); conditions: 0.1 µM; binder
[3] = target: RSK1(Kin.Dom.2-C-terminal) (Homo sapiens, UniProt Q15418); conditions: 0.1 µM; binder
Sequence of RSK1(Kin.Dom.2-C-terminal) (Q15418 whole entry): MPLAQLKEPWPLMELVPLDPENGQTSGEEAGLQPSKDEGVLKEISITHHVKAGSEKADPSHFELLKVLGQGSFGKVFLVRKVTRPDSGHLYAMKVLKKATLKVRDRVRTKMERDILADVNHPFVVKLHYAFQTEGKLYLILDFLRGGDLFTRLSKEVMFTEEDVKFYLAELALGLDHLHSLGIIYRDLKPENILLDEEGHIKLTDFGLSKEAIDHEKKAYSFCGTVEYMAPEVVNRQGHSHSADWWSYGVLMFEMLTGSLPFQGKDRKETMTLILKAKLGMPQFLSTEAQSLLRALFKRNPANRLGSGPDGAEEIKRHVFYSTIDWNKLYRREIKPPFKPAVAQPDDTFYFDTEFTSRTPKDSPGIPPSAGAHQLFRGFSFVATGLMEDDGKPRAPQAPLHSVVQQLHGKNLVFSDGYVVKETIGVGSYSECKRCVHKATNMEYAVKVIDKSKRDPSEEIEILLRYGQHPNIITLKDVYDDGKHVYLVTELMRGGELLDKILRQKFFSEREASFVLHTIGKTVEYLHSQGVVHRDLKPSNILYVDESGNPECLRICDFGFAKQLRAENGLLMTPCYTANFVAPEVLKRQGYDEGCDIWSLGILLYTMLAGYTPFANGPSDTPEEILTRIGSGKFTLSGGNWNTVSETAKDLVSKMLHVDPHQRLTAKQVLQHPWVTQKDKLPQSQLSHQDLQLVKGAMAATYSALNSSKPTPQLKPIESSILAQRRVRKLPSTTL

PFPK5(P. falciparum) = PFPK5(P. falciparum) (Plasmodium falciparum, UniProt P61075); conditions: 0.1 µM; binder
Sequence of PFPK5(P. falciparum) (P61075 whole entry): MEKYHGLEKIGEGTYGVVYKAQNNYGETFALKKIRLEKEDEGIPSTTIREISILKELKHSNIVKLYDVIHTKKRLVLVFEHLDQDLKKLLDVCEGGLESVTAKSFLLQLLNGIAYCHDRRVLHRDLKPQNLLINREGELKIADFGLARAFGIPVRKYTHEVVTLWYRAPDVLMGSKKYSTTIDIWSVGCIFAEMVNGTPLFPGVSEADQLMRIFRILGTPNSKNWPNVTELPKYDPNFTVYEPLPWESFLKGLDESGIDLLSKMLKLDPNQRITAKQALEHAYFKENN

[4] = target: RSK4(Kin.Dom.1-N-terminal) (Homo sapiens, UniProt Q9UK32); conditions: 0.1 µM; binder
Sequence of RSK4(Kin.Dom.1-N-terminal) (Q9UK32 whole entry): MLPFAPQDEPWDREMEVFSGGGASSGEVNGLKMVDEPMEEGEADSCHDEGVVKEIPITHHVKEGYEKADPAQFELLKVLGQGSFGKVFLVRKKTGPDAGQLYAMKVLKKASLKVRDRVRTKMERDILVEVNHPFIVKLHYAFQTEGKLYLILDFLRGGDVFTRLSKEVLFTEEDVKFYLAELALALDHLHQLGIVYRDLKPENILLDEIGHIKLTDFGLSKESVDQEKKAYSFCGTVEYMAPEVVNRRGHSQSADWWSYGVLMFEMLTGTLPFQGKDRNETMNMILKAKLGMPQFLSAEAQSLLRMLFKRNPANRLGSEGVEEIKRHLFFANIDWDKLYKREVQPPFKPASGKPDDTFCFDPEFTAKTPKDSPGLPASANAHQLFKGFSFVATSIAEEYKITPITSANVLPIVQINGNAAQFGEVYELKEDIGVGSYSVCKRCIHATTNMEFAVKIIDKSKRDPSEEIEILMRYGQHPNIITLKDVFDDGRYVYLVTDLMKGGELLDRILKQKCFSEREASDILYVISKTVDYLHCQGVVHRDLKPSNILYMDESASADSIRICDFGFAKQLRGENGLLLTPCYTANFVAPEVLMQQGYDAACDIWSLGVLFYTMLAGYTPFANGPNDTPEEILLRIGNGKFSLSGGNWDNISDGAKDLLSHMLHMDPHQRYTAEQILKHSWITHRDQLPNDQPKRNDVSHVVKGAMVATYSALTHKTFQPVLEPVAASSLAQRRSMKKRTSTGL

Sequence of RSK2(Kin.Dom.1-N-terminal) (P51812 whole entry): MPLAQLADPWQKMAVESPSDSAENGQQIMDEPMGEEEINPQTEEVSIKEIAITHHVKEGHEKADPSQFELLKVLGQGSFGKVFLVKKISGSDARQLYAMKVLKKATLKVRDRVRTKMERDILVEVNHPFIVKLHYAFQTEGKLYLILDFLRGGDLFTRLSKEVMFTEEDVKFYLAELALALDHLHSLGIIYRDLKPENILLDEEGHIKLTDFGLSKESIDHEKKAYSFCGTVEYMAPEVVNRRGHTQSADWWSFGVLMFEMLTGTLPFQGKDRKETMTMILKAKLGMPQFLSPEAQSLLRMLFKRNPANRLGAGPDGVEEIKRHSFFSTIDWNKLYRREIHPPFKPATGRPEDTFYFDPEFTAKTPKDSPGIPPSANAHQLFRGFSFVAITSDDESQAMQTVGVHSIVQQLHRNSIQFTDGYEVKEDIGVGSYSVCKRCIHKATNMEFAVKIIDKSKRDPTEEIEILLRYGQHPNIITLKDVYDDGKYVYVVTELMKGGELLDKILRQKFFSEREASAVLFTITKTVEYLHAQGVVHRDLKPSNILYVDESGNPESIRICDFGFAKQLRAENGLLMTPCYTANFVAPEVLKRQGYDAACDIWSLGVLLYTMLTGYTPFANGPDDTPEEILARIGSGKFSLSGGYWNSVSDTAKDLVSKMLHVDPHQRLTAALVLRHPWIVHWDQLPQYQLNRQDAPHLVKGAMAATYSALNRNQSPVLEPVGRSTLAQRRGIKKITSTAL
Sequence of STK33 (Q9BYT3 whole entry): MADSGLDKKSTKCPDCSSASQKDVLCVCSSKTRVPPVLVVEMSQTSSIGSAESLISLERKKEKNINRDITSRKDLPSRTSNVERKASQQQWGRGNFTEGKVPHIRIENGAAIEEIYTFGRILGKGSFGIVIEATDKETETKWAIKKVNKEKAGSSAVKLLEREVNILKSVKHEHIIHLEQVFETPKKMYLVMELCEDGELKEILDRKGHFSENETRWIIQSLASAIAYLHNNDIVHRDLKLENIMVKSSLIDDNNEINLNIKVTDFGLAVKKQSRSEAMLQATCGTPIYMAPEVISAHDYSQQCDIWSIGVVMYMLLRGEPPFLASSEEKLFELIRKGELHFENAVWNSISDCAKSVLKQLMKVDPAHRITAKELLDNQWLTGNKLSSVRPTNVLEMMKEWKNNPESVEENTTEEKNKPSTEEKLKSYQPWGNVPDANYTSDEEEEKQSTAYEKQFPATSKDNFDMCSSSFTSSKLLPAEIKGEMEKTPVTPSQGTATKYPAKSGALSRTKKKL
Sequence of PFCDPK1 (P. falciparum) (P62344 whole entry): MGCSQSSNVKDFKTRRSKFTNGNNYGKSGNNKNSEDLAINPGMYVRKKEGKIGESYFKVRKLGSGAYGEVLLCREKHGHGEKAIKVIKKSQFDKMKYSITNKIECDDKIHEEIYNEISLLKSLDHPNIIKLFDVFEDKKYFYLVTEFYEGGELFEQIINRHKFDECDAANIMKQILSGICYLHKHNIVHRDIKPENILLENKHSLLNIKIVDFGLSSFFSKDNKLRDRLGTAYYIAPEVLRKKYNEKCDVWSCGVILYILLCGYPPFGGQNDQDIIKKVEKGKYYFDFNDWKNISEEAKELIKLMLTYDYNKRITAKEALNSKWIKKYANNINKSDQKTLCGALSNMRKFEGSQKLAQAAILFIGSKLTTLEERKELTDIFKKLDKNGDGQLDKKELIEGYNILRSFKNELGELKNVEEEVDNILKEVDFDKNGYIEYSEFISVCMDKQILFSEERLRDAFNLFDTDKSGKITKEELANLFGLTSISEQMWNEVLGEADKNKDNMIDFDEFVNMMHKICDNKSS
Sequence of RPS6KA5(Kin.Dom.1-N-terminal) (O75582 whole entry): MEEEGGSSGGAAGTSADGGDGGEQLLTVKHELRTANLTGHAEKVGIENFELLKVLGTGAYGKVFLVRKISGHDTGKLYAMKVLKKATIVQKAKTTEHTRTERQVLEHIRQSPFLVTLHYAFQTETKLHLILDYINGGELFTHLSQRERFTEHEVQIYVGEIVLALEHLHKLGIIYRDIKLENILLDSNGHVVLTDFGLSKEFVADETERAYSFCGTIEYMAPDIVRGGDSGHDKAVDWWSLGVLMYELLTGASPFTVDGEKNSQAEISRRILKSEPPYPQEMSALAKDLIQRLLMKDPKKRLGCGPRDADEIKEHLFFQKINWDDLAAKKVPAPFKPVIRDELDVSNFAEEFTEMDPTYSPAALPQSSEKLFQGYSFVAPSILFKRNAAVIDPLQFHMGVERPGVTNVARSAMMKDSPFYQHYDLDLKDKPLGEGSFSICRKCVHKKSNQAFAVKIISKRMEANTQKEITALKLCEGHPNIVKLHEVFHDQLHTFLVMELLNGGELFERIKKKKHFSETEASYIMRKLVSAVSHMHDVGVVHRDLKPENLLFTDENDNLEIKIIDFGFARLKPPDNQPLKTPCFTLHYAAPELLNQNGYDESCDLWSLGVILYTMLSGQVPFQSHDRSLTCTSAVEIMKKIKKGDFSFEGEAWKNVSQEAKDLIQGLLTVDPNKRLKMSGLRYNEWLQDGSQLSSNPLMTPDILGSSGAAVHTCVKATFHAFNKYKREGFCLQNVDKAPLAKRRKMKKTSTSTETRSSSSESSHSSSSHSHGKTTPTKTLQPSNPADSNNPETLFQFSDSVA

CNc1ncc2cc(-c3ccc(-c4cccc(C)n4)cc3Cl)c(=O)n(C[C@H]3OC[C@H](N)CO3)c2n1 [compound 6, G-5555]
remaining activity at 0.1 µM (STK33): 100%
Percent Control [1]: 94%
Percent Control (PFCDPK1 (P. falciparum)): 9.1%
Percent Control [2]: 100%
Percent Control [3]: 100%
Percent Control (PFPK5(P. falciparum)): 90%
Percent Control [4]: 97%
